Residues, ends and D or L forms follow the SMILES beside them.
Experiments:
[1] = system: Pseudomonas aeruginosa ATCC 19660 induced keratitis; experiment: Neutrophil infiltration into cornea by myeloperoxidase (MPO) assay; assay type: in vivo, C57BL/6 mice
Excerpt: Corneas were harvested 1,3 and 5 days after infection and neutrophil infiltration determined by MPO assay. […] PI=post infection, Pre-trt=pretreatment with Esc-1a(1-21)NH2. *Indicates significant difference, p<0.05, among PBS control and peptide treated groups.
To determine a clinical score, neutrophil infiltration by myeloperoxidase assay (MPO assay) and viable bacterial cell counts in infected and control corneas of C57BL/6 mice with Pseudomonas aeruginosa ATCC 19660 keratitis following pre-treatment and post-infection treatment with Esc-1a(1-21)NH2 up to 5 days post-infection (PI) the following experiment was performed. In these experiments pre-treatment refers to a group of animals where treatment was initiated 24 hrs before infection then continued after infection.
An MPO assay was used to quantitate polymorphonuclear cell numbers in the cornea from both infected corneas (n=2/group/time point) of Esc-1a(1-21)NH2 treated and control (PBS) treated animals. Briefly, corneas were harvested at days 1, 3 and 5 PI. The change in absorbance at 450 nm was monitored for one hour at 15-30 minute intervals. The results were expressed as units of MPO per cornea. One unit of MPO activity is equivalent to 2*10^5 polymorphonuclear cells.
Harvested and pooled corneas (2 mice/group) in 200 μl of sterile PBS/cornea. Placed the harvested corneas on ice until further processing. Homogenized the corneas for 30-45 seconds and briefly sonicated them for 10-20 seconds.
C. Added 10 μl of 0.5% HTAB (hexadecyltrimethylammonium bromide in potassium phosphate buffer 50 mM pH 6) to 90 μl homogenate (*stored the remaining homogenate on ice to obtain recoverable P. aeruginosa counts for viability assay).
D. Sonicated samples 2×5 seconds then freeze thawed three times on liquid nitrogen.
E. Centrifuged at 14000*g at 4° C. for 20 minutes.
F. To 10 ml of phosphate buffer added 0.00167 g 0-dianisidine dihydrochloride and 1.67 μl (0.05%) H2O2. 90 μl of this was added to each well to produce the color reaction (protected the solution from light).
G. Made up standards for MPO using phosphate buffer based on the initial concentration of the MPO. Double diluted 25 μl MPO standard & carry 25 μl over since 10 μl was needed per well (run in duplicate).
H. Added 10 μl of each standard to 96 well plate and 10 μl sample supernatant (in triplicate).
I. Added 90 μl phosphate buffer containing O-d-d and H2O2 to the plate. Popped bubbles and read on spectrophotometer at 450 nm at 3 minutes, 5 minutes, 10 minutes, 15 minutes, 30 minutes, 45 minutes and 60 minutes.
The MPO units per cornea were determined and the mean from 3 independent experiments was plotted (FIG. 6).

P. aeruginosa ATCC 27853 = experiment: Bactericidal activity in the presence of basal human tears; assay type: cell-based, Pseudomonas aeruginosa; settings: for percentage of bacteria killed: 20 μM peptide, 90 minutes
Experimental: (§1) FIGS. 2A-2B show the effects of human basal tears on the bactericidal activity of Esc-1a(1-21)NH2 against P. aeruginosa ATCC 27853 (FIG. 2A) and ATCC 19660 (FIG. 2B). Bacterial cells were incubated with the peptide in the presence of different concentrations of tears collected from eighteen consenting adult volunteers with normal ocular surface and pooled. Aliquots were withdrawn for cell counting at different time intervals. Mean data (n=3), expressed as the percentage of bacteria killed by the peptide are shown. *Indicates significant difference, p<0.05.
(§2) 2×10^6 CFU/ml P. aeruginosa (ATCC 27853 or ATCC 19660) were incubated with 1-20 μM Esc-1a(1-21)NH2 in the presence of 50% or 70% v/v tears and aliquots withdrawn, plated and counted after 30, 90 and 120 minutes (n=3).

P. aeruginosa ATCC 19660 = experiment: as above; assay type: cell-based, Pseudomonas aeruginosa; settings: 10 μM peptide, within 30 minutes, 70% (v/v) basal tears
Experimental: as §1, §2

Raw 264.7 macrophages = experiment: MTT viability assay, Raw 264.7 macrophages; settings: 128 μM, 24 h incubation
Experimental: (§3) Cell viability is expressed as percentage with respect to the control (cells not treated with the peptides). Data points represent the mean of triplicate samples ±SEM. […] The levels of statistical significance between the two peptides are indicated as follows: **p<0.01, ***p<0.001.
(§4) Cells were plated in wells of a microtiter plate, at 4×10^4 cells/well in DMEM supplemented with 2 mM glutamine and 2% FBS (for A549 cells) or DMEM containing 2 mM glutamine, non-essential amino acids (NEAA), sodium pyruvate and 2% FBS (for Raw 264.7 macrophages). After overnight incubation at 37° C. in a 5% CO2 atmosphere, the medium was replaced with 100 μl fresh serum-free medium supplemented with the peptides at different concentrations. After 24 h of peptide treatment, cell viability was determined by a MTT assay.

[2] = MTT viability assay, Raw 264.7 macrophages; settings: mouse, Raw 264.7 macrophages
Experimental: as §3, §4

SMILES: CC[C@H](C)[C@H](NC(=O)CN)C(=O)N[C@@H](Cc1ccccc1)C(=O)N[C@@H](CO)C(=O)N[C@@H](CCCCN)C(=O)N[C@@H](CC(C)C)C(=O)N[C@@H](C)C(=O)NCC(=O)N[C@@H](CCCCN)C(=O)N[C@@H](CCCCN)C(=O)N[C@H](C(=O)N[C@@H](CCCCN)C(=O)N[C@@H](CC(N)=O)C(=O)N[C@@H](CC(C)C)C(=O)N[C@@H](CC(C)C)C(=O)N[C@H](C(=O)N[C@@H](CO)C(=O)NCC(=O)N[C@@H](CC(C)C)C(=O)N[C@@H](CCCCN)C(=O)NCC(N)=O)[C@@H](C)CC)[C@@H](C)CC [Esc-1a(1-21)NH2] (H-GIFSKLAGKKIKNLLISGLKG-NH2; N-terminus assumed)
- normalized MPO activity per cornea ([1]; pre-treated, day 1 PI): 1.55±0.4 MPO units
- normalized MPO activity per cornea ([1]; pre-treated, day 3 PI): 1.66±0.13 MPO units
- normalized MPO activity per cornea ([1]; pre-treated, day 5 PI): 1.55±0.28 MPO units
- normalized MPO activity per cornea ([1]; treated after infection, day 1 PI): 1.69±0.40 MPO units
- normalized MPO activity per cornea ([1]; treated after infection, day 3 PI): 1.84±0.16 MPO units
- normalized MPO activity per cornea ([1]; treated after infection, day 5 PI): 1.82±0.42 MPO units
- percentage of bacteria killed (P. aeruginosa ATCC 27853; 50% v/v basal tears): 100%
- percentage of bacteria killed (P. aeruginosa ATCC 27853; 70% v/v basal tears): 70%
- retention of activity in basal tears (P. aeruginosa ATCC 27853; 1-20 μM peptide, 50% or 70% v/v basal tears): the majority of Esc-1a(1-21)NH2 activity was retained
- killing of bacteria (P. aeruginosa ATCC 19660): complete killing
- killing (Raw 264.7 macrophages): 100%
- CC50 at 24 h [2]: 64 µM
